From patent US20040175691A1, “Use of the KCNQ2 and KCNQ3 genes for the discovery of agents useful in the treatment of neurological disorders” (priority 1998, published 2004)

Legend:
Conditions in all cases: mean±s.e.m.
KCNQ2 + KCNQ3 = target: T1, KCNQ2 + KCNQ3 (UniProt O43526+O88944, DEL417-446); assay: Blockade of KCNQ2+KCNQ3 channels expressed in Xenopus oocytes; assay type: cell-based, human KCNQ2, rat KCNQ3
T1 construct: Full-length KCNQ2 cDNAs were amplified from adult human brain cDNA; Multiple full-length cDNA clones were amplified in independent PCR reactions from rat SCG cDNA; expressed in transfected cells; host or cells: Xenopus oocytes injected with cRNA
Protocol: Method: Full-length KCNQ2 cDNAs were amplified from adult human brain cDNA using the following primers ([…], […]) with the Expand Fidelity enzyme mixture (Boehringer Mannheim, Indianapolis). […] This region is also alternatively spliced in the KCNQ2 cDNA clone described by Biervert et al. (1998). Preparation, injection of cRNA and recording from oocytes was performed at room temperature as described previously (Dixon et al. 1996). The standard extracellular recording solution contained: 82 mM NaCl, 2 mM KCl, 1.8 mM CaCl2, 1 mM MgCl2, and 5 mM Na-HEPES (pH 7.6). Data collection and analysis were performed using pClamp software (Axon Instruments, Foster City, Calif.).
Holding potential was −60 mV and the cell was repetitively depolarized to −30 mV for 1 minute to reach steady-state blockade. Tail currents were recorded at −50 mV.
IC50 values are all expressed in μM, mean±s.e.m. In cases where the IC50 values were greater than 100 μM the exact value is not reported due to limited solubility in the drug.

erg1 = target: T2, erg1 (Rattus norvegicus, UniProt O08962); assay: Blockade of cloned erg1 channel in oocytes; assay type: cell-based
T2 construct: expressed in transfected cells; host or cells: oocytes (Xenopus)
T2 sequence (O08962 1-1163): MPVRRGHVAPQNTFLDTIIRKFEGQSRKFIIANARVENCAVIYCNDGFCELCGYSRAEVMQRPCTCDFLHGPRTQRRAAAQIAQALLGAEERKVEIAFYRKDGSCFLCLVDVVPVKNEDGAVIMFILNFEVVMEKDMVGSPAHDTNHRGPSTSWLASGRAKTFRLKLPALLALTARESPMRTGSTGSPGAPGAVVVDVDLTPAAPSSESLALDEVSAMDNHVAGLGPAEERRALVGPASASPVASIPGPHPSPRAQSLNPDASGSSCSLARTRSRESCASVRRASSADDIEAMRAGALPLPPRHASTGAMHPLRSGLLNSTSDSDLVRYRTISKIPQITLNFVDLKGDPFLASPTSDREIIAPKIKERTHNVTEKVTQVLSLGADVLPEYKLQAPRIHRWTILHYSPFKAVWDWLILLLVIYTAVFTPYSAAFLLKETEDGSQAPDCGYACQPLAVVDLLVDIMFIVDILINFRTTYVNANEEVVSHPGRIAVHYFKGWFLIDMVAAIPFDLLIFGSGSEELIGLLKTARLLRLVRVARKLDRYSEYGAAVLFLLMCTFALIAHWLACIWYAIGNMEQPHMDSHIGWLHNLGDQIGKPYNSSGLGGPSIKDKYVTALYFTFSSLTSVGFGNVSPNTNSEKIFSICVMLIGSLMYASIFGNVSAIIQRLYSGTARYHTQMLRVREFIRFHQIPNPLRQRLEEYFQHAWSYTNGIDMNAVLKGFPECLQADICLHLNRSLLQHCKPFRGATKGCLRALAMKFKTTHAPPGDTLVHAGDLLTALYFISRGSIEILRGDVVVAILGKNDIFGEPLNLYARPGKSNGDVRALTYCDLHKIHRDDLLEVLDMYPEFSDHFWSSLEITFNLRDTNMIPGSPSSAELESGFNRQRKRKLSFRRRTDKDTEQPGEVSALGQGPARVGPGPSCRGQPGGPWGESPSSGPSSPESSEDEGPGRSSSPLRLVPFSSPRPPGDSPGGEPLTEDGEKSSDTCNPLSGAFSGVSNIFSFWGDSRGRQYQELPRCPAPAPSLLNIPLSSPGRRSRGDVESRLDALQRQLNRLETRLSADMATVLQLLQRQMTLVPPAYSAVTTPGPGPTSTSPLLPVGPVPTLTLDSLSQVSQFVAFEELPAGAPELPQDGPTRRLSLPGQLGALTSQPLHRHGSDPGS

erg3 = target: T3, erg3 (Rattus norvegicus, UniProt O54852); assay: Blockade of cloned erg3 channel in oocytes; assay type: cell-based
T3 construct: expressed in transfected cells; host or cells: oocytes (Xenopus)
T3 sequence (O54852 1-1195): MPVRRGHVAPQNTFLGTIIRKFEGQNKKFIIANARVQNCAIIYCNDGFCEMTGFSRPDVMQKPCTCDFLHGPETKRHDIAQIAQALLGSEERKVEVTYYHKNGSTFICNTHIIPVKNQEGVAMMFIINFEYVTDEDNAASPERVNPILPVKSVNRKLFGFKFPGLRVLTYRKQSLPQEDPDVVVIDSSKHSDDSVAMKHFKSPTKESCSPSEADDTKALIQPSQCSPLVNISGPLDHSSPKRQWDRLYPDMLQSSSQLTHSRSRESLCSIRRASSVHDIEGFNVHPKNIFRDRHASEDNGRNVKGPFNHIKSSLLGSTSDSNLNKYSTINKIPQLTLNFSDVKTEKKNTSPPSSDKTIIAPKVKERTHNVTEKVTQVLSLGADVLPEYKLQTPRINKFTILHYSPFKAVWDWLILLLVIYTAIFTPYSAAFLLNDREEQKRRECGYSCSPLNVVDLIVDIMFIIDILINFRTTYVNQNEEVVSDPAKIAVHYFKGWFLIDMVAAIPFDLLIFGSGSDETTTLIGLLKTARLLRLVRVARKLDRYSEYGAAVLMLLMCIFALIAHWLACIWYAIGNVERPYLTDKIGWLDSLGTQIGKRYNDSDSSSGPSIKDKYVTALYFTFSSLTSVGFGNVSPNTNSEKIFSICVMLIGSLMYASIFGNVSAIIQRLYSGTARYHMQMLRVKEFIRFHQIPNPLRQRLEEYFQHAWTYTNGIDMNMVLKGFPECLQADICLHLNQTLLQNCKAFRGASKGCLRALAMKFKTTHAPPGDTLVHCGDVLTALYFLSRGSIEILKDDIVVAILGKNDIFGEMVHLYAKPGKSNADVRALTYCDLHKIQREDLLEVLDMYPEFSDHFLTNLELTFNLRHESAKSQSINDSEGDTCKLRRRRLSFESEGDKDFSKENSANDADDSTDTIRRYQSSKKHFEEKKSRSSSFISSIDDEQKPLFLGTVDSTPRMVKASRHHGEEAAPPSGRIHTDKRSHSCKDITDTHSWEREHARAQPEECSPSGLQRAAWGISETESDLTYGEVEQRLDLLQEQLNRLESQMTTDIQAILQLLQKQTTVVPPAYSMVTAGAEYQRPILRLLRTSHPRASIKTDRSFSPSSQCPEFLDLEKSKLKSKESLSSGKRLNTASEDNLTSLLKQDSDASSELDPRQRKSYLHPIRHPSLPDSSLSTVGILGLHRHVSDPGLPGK

Compound	IC50 (KCNQ2 + KCNQ3) [µM]	IC50 (erg1) [µM]	IC50 (erg3) [µM]
O=C1c2ccccc2C(Cc2ccncc2)(Cc2ccncc2)c2ccccc21 [XE991, 10,10-bis(4-pyridinylmethyl)-9(10H)-anthracenone]	0.6 ± 0.1	> 100	> 100
O=C1N(c2ccccc2)c2ccccc2C1(Cc1ccncc1)Cc1ccncc1 [Linopirdine, 3,3-bis(4-pyridinylmethyl)-1-phenylindolin-2-one]	4 ± 0.5	53 ± 4	85 ± 5
